The source of these data is patent US9708359B2, “Pyrrolopyrimidine nucleosides and analogs thereof” (Chimerix, Inc., priority 2015, dated 2017).

For one data set, the system named is human norovirus. Put plainly: Efficacy of Compound 1 Against Human Norovirus (viral titer). As to conditions: cells pretreated with 25 μM compound for two hours; duplicate (FIGS. 4-6). Format: cell-based. On the procedure:
The efficacy of compound 1 for inhibiting norovirus was compared to DMSO (as a control), compound 2, and 2′-C-methylcytidine triphosphate (2′CmeC TP). Cells were pretreated with 25 μM of experimental compound for two hours. Virus inoculum was added for two hours, and unbound virus washed off and fresh media and fresh experimental compound was added.

In the next data set the test system is RAW cells. Put plainly: Conversion of Compound 1 to Triphosphate in RAW Cells. As to conditions: for (Compound 1-TP)/(Compound 1) (ng): ratio by ng; for (Compound 1-TP)/(Compound 1) (pmol): ratio by pmol.
Data set [1] is described as follows: Cytotoxicity (CC50) in RAW cells. As to conditions: mouse.
A further data set relates to mouse norovirus. Kind of data set: Mouse Norovirus (MNV) assay in RAW cells. The settings on record: Norovirus, in Mus musculus, read-out: MNV Mean EC50, RAW cells.
The mark [2] stands for this setting: RAW cells incubated with 0.5 μM Compound 1 for 48 hours.
Setting [3] is: RAW cells incubated with 1 μM Compound 1 for 48 hours.
Setting [4] is: RAW cells incubated with 5 μM Compound 1 for 48 hours.
Setting [5] is: RAW cells incubated with 10 μM Compound 1 for 48 hours.

With `C[C@@]1(O)[C@H](O)[C@@H](COP(=O)(O)OP(=O)(O)OP(=O)(O)O)O[C@H]1n1ccc(N)nc1=O` [2′CmeC TP, 2′-C-methylcytidine triphosphate, reference compound], in the data set with human norovirus, the viral titer entry was “increased almost two orders of magnitude”.
Regarding `Cc1nc(N)c2c(C(N)=O)cn([C@@H]3O[C@H](COP(=O)(O)OP(=O)(O)OP(=O)(O)O)[C@@H](O)[C@H]3O)c2n1` [Compound 1-TP], the “Concentration (ng/1 × 10^6 cells)” value with RAW cells (setting [2]) turned out to be 3.74 ng/1 × 10^6 cells; in the data set on RAW cells (setting [3]), 5.13 ng/1 × 10^6 cells; in the data set with RAW cells (setting [4]) it was 26.77 ng/1 × 10^6 cells; in the data set on RAW cells (setting [5]), 41.78 ng/1 × 10^6 cells. Further, the “Concentration (pmol/1 × 10^6 cells)” value in the data set with RAW cells (setting [2]) is listed as 6.37 pmol/1 × 10^6 cells; in the data set with RAW cells (setting [3]), 8.74 pmol/1 × 10^6 cells; in the data set with RAW cells (setting [4]) it was 45.61 pmol/1 × 10^6 cells; with RAW cells (setting [5]) it was 71.18 pmol/1 × 10^6 cells. The “(Compound 1-TP)/(Compound 1) (ng)” value in the data set with RAW cells (0.5 μM Compound 1, 48 hours) amounted to 21.8; in the data set on RAW cells (1 μM Compound 1, 48 hours), 39.4; in the data set on RAW cells (5 μM Compound 1, 48 hours), 41.3; in the data set with RAW cells (10 μM Compound 1, 48 hours), 41.1. The “(Compound 1-TP)/(Compound 1) (pmol)” value in the data set with RAW cells (0.5 μM Compound 1, 48 hours) turned out to be 12.0; with RAW cells (1 μM Compound 1, 48 hours), 21.7; in the data set on RAW cells (5 μM Compound 1, 48 hours), 22.7; with RAW cells (10 μM Compound 1, 48 hours), 22.6.
As usually defined, the CC50 is the concentration giving 50% cytotoxicity. High values mean better tolerance by the cells, low ones harm at low concentration. As usually defined, the EC50 is the midpoint of the concentration-response curve. Take `C[C@@]1(O)[C@H](O)[C@@H](CO)O[C@H]1n1ccc(N)nc1=O` [2′-C-Methyl Cytidine, reference compound]: the CC50 in data set [1] is 34.3 µM. The EC50 in the data set on mouse norovirus was 3.2 µM.
